According to patent US4352819A (priority 1980, dated 1982):
Like-named read-outs stand apart in the source and are kept apart here.

How the values were obtained:
[1] = test system: ventricular fibrillation induced by chloroform; assay: Chloroform test (antiarrhythmic); assay type: in vivo; settings: iv, read-out: ED50, Chloroform, mouse (dose which protects 50% of the mice against ventricular fibrillation induced by chloroform)
Procedure: Five minutes after i.v. injection of the compound under study the mice are placed into a 300 ml beaker containing cotton wool soaked with 20 ml of chloroform. The animals are watched carefully and taken out of the beaker as soon as the second respiratory arrest occured. The heart is then quickly exposed to visual inspection of ventricular rhythm (see Lawson, Loc.cit.).

[2] = test system: aconitine-induced arrhythmias; assay: Aconitine test (antiarrhythmic); assay type: in vivo, rat; settings: for ED50: Rattus norvegicus, read-out: ED50, Aconitine, rat
Description: (§1) These compounds were first selected owing to their activity in different experimental arrhythmia models which are used as screening techniques. So the chloroform, aconitine and calcium chloride tests have been used for testing the compounds of the invention as described by J. W. Lawson, J.Pharmacol.exp.Ther. 160, 22-81 (1968) "Antiarrhythmic activity of some isoquinoline derivatives determined by a rapid screening procedure in the mouse".
It seems that investigators favour the rat so as to study the protective effect of a compound on arrhythmia induced by aconitine (see: J. L. Junien et al., Arzneim.Forsch. 24, 1743-1747 (1974); L. Szekeres et al., Experimental cardiac arrhythmias and antiarrhythmic drugs, Publishing House of the Hungarian Academy of Sciences (Akademia Kiado), Budapest (1971); M. R. Malinow et al., Arch.int.Pharmacodyn. 102, 55-64 (1955); C. Bianchi et al., Arzneim. Forsch. 18, 845-850 (1968); B. B. Vargaftig et al., J. Pharm. Pharmacol. 27, 697-699 (1975); and M. Fekete et al., Med Exp. 10, 93-102 (1964)).
Test compounds are administered to the urethane-anaesthetized rat prior to the injection of aconitine. Various antiarrhythmic drugs are capable of delaying the onset of aconitine-induced arrhythmias and this model of arrhythmia seems to be suitable for assaying the antiarrhythmic acitivity.

[3] = test system: calcium chloride-induced arrhythmias; assay: Calcium chloride test (antiarrhythmic); assay type: in vivo, rat; settings: for ED50: iv, read-out: ED50, Calcium chloride, rat
Description: as §1
Cardiac arrhythmia frequently occurs when the levels of serum ions are abnormal, particularly when the calcium level is four times higher than the normal concentration. This is the reason why intravenous administraction of high doses of calcium chloride can elicit the development of dysrhythmias in animals.
In the anaesthetized rat the rapid intravenous injection of calcium chloride causes lethal ventricular fibrillation or ventricular extrasystoles. The evaluation of the activity of the test compound aministered prior to the calcium chloride injection is based on the onset of arrhythmia (M. R. Malinow et al., Arch.int. Pharmacodyn. 102, 55-64 (1955), "The pharmacology of experimental ventricular arrhythmias in the rat I. Antihistamic drugs") or return to sinus rhythm after occasional trouble of rhythm (M. Fekete et al., Med. Exp. 10, 93-102 (1964), "On the antiarrhythmic effect of some thymoleptics: amitriptyline, imipramine, trimepropimine and desmethylimipramine").

Structure (SMILES)	ED50 ([1]; Mus musculus)	ED50 [2]	ED50 ([3]; Rattus norvegicus)	ranking in the aconitine test ([2]; rat, compared by ED50)	protection against arrhythmias induced by calcium chloride ([3]; rat)	ED50 ([1]; mouse, i.v., 5 minutes before chloroform)	ED50 ([3]; anaesthetized rat, compound given prior to i.v. calcium chloride)
CCCCNCC(O)COc1ccsc1C(=O)CCc1ccccc1.OCl (centres unmarked) [LG 80-6-00, 1-[3-(2-hydroxy-3-n-butylaminopropoxy)-2-thienyl]-3-phenyl-1-propanone-chlorohydrate]	4.16 mg/kg	4.23 mg/kg	5.04 mg/kg				
CCCNCC(O)COc1c(C)csc1C(=O)CCc1ccccc1.OCl (centres unmarked) [LG 80-6-01, 1-[4-methyl-3-(2-hydroxy-3-n-propylaminopropoxy)-2-thienyl]-3-phenyl-1-propanone-chlorohydrate]	3.57 mg/kg	1.49 mg/kg	2.59 mg/kg	best compound in this method	best protection against arrhythmias induced by calcium chloride		
CCCNCC(O)COc1cc(C)sc1C(=O)CCc1ccccc1.OCl (centres unmarked) [LG 80-6-02, 1-[5-methyl-3-(2-hydroxy-3-n-propylaminopropoxy)-2-thienyl]-3-phenyl-1-propanone-chlorohydrate]	17.6 mg/kg	22.8 mg/kg	2.87 mg/kg				
CCCNCC(O)COc1ccccc1C(=O)CCc1ccccc1 (centres unmarked) [Propafenon, Propafenone, reference compound]		2.1 mg/kg				3.45 mg/kg	4.49 mg/kg
